From US20070066561A1, “Drug delivery and targeting with vitamin B12 conjugates” (New York University, priority 2002, published 2007)
Values after ≈ are worked out from the molar mass of the structure shown.

Legend:
[1] = test system: HL60 Promyelocytic leukemia; experiment: Cytotoxicity against human cell lines grown in culture, MTT assay; type: cell-based; details: 72 hr continuous incubation, 5% human serum, relative cell growth by MTT, means of duplicate experiments
Source text: (§1) The data below are means of duplicate experiments with similar results.

[2] = test system: K562 Erythroleukemia; experiment: as above; type: cell-based; details: 72 hr continuous incubation, 5% human serum, relative cell growth by MTT, means of duplicate experiments
Source text: as §1

[3] = test system: KARPAS-291 Lymphoma; experiment: as above; type: cell-based; details: 72 hr continuous incubation, 5% human serum, relative cell growth by MTT, means of duplicate experiments
Source text: as §1

[4] = Bioactivity of cobalamin conjugates (test not described)
[5] = biological target: T1, transcobalamin II (TCII) (Homo sapiens, UniProt P20062); experiment: Binding to transcobalamin II; details: compared with control vitamin B12; listed as p-iodohippuric acid TFP ester conjugated to the e-cyanocobalamin via the 4,7,10-
T1 sequence (P20062 19-427): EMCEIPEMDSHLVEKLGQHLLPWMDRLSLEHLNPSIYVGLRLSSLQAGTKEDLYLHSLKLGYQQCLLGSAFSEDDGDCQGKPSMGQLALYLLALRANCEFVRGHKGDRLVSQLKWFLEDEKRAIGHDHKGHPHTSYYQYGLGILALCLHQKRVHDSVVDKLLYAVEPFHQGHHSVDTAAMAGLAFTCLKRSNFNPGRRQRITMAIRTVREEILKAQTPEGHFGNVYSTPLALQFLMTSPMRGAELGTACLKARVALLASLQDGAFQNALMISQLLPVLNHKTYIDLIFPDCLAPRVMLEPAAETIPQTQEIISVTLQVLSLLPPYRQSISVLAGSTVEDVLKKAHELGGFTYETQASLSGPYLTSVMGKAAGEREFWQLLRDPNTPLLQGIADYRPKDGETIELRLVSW
Protocol: This conjugate may be used as a standard for future B12 derivatives because of its higher rate of binding to TCII, which is required for efficient delivery to the appropriate receptors.
The p-iodohippuric acid TFP ester conjugated to the e-cyanocobalamin via the 4,7,10-trioxa-1,13-tridecanediamine linker was assessed for binding to transcobalamin II (TCII).

[6] = cited from earlier work
[7] = between pH about 4 and 7; cited from earlier work

Compound: CC(=O)O[C@H]1C(=O)[C@@]2(C)[C@H]([C@H](OC(=O)c3ccccc3)[C@]3(O)C[C@H](OC(=O)[C@H](O)[C@@H](NC(=O)c4ccccc4)c4ccccc4)C(C)=C1C3(C)C)[C@]1(OC(C)=O)CO[C@@H]1C[C@@H]2O [Taxol, Paclitaxel]
- IC50 ([1]; HL-60): 0.15 ng/mL (≈ 0.176 nM)
- IC50 ([2]; K562): 4 ng/mL (≈ 4.68 nM)
- IC50 [3]: 2 ng/mL (≈ 2.34 nM)

Compound: B12-P-Hippuric acid-4,7,10-trioxa-1,13-tridecanediamine e-cyanocobalamin monocarboxylic acid conjugate [B12 P-Hippuric acid]
- Bioactivity [4]: bioactive
- Binding to TCII [5]: substantially as great as for control vitamin B12

Compound: cyanocobalamin [B12]
- Solubility in acetone, ether, and chloroform [6]: insoluble
- Solubility in lower alcohols and phenol [6]: moderately soluble
- Solubility in water ([6]; room temperature): 12 mg/mL
- Cytotoxicity, HL60 Promyelocytic leukemia [1]: 152 ng/mL
- Cytotoxicity, K562 Erythroleukemia [2]: 250 ng/mL
- Cytotoxicity, KARPAS-291 Lymphoma [3]: 294 ng/mL
- Stability in aqueous solutions [7]: quite stable

Compound: p-iodohippuryl-1,12-diaminododecane conjugated to cyanocobalamin-e-carboxylate
- Bioactivity [4]: most bioactive conjugate studied
